Experimental data taken from US12319672B2, “Alpha-D-galactopyranoside derivatives” (Idorsia Pharmaceuticals Ltd, priority 2019, dated 2025).

Columns and labels:
human Gal-1 (hGal-1) = experiment: Competitive binding assay: binding of biotinylated hGal-1 to microplate-adsorbed asialofetuin (ASF); details: Activities on hGal-1; mean values of several measurements
Method: (§1) Evaluation of Compound Inhibitory Activity (IC50)
(§2) The inhibitory activity of compounds is determined in competitive binding assays. This spectrophotometric assay measures the binding of biotinylated human Gal-3 (hGal-3) or human Gal-1 (hGal-1), respectively, to a microplate-adsorbed glycoprotein, asialofetuin (ASF) (Proc Natl Acad Sci USA. 2013 Mar. 26; 110(13):5052-7.). Alternatively, and preferably, a human Gal-1 version in which all six cysteines are substituted by serines may be used.
(§3) Briefly, compounds are serially diluted in DMSO (working dilutions). ASF-coated 384 well plates are supplemented with 22.8 μL/well of biotinylated hGal-3 or hGal-1 in assay buffer (i.e. 300-1000 ng/mL biotinylated hGal-3 or hGal-1) to which 1.2 μL of compound working dilutions are added and mixed.
(§4) Plates are incubated for 3 hours at 4° C., then washed with cold assay buffer (3×50 uL), incubated for 1 hour with 25 μL/well of a streptavidin-peroxidase solution (diluted in assay buffer to 80 ng/mL) at 4° C., followed by further washing steps with assay buffer (3×50 uL). Finally, 25 μL/well of ABTS substrate is added.
(§5) The calculated IC50 values may fluctuate depending on the daily assay performance. Fluctuations of this kind are known to those skilled in the art. IC50 values from several measurements are given as mean values.

human Gal-3 (hGal-3) = human Gal-3 (hGal-3) (Homo sapiens (Human), UniProt P17931); experiment: Competitive binding assay: binding of biotinylated hGal-3 to microplate-adsorbed asialofetuin (ASF); details: Activity on hGal-3; mean values of several measurements
Chain of human Gal-3 (hGal-3) (P17931 whole entry): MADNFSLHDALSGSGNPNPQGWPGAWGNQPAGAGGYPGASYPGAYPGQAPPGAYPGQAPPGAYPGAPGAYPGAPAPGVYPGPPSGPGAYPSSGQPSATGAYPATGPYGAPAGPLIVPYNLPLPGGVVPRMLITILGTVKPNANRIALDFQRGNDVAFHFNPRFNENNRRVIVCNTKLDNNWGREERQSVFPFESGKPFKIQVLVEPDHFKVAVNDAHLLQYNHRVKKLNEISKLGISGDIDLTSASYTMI
Method: as §1, §2, §3, §4, §5

Chain of human Gal-1 (hGal-1) (P09382 2-135 limits assumed): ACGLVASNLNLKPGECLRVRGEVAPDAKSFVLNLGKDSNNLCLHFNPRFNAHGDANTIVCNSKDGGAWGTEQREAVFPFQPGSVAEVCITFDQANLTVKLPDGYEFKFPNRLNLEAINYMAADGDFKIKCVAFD

Compound	IC50 (human Gal-1 (hGal-1))	IC50 (human Gal-3 (hGal-3))
Cc1ccc(-c2cn([C@H]3[C@@H](O)[C@@H](CO)O[C@H](Cc4cc(C(C)(C)C)no4)[C@@H]3OCc3nccs3)nn2)c(F)c1F [Example 2.53, (2R,3R,4S,5R,6R)-6-((3-(tert-butyl)isoxazol-5-yl)methyl)-4-(4-(2,3-difluoro-4-methylphenyl)-1H-1,2,3-triazol-1-yl)-2-(hydroxymethyl)-5-(thiazol-2-ylmethoxy)tetrahydro-2H-pyran-3-ol]	1050 nM	53 nM
CO[C@@H]1[C@@H](n2cc(-c3cc(F)c(F)c(F)c3)nn2)[C@@H](O)[C@@H](CO)O[C@@H]1Cc1cc(C2CCN(CC3COC3)CC2)on1 [Example 3.44, (2R,3R,4S,5R,6R)-2-(hydroxymethyl)-5-methoxy-6-((5-(1-(oxetan-3-ylmethyl)piperidin-4-yl)isoxazol-3-yl)methyl)-4-(4-(3,4,5-trifluorophenyl)-1H-1,2,3-triazol-1-yl)tetrahydro-2H-pyran-3-ol]	5320 nM	560 nM
CO[C@@H]1[C@@H](n2cc(-c3ccc(C)c(F)c3F)nn2)[C@@H](O)[C@@H](CO)O[C@@H]1CN1CC(=O)N(C2CCCCC2)C1 [Example 6.06, 3-cyclohexyl-1-(((2R,3R,4S,5R,6R)-4-(4-(2,3-difluoro-4-methylphenyl)-1H-1,2,3-triazol-1-yl)-5-hydroxy-6-(hydroxymethyl)-3-methoxytetrahydro-2H-pyran-2-yl)methyl)imidazolidin-4-one]	1630 nM	42 nM
CO[C@@H]1[C@@H](n2cc(-c3cc(F)c(F)c(F)c3)nn2)[C@@H](O)[C@@H](CO)O[C@@H]1Cc1cc(C2(O)CCCC2)no1 [Ex 1.312]	4240 nM	140 nM

Other lines, results leading:

IC50 (human Gal-1 (hGal-1))	IC50 (human Gal-3 (hGal-3))	Compound
150 nM	40 nM	CO[C@@H]1[C@@H](n2cc(-c3cccc(F)c3)nn2)[C@@H](O)[C@@H](CO)O[C@@H]1Cc1cn(C2CCN(C(=O)OCc3ccccc3)CC2)nn1 [Example 4.35, benzyl 4-(4-(((2R,3R,4S,5R,6R)-4-(4-(3-fluorophenyl)-1H-1,2,3-triazol-1-yl)-5-hydroxy-6-(hydroxymethyl)-3-methoxytetrahydro-2H-pyran-2-yl)methyl)-1H-1,2,3-triazol-1-yl)piperidine-1-carboxylate]
1780 nM	26 nM	CCOC(=O)N1CCC(c2cc(C[C@H]3O[C@H](CO)[C@H](O)[C@H](n4cc(-c5ccc(Cl)c(F)c5F)nn4)[C@H]3OC)no2)CC1 [Ex 1.203]
1860 nM	290 nM	CO[C@@H]1[C@@H](n2cc(-c3cc(F)c(F)c(F)c3)nn2)[C@@H](O)[C@@H](CO)O[C@@H]1CC1CC(C2CCN(C(C)=O)CC2)=NO1 (mixture of isomers) [Example 3.05, 1-(4-((RS)-5-(((2R,3R,4S,5R,6R)-5-hydroxy-6-(hydroxymethyl)-3-methoxy-4-(4-(3,4,5-trifluorophenyl)-1H-1,2,3-triazol-1-yl)tetrahydro-2H-pyran-2-yl)methyl)-4,5-dihydroisoxazol-3-yl)piperidin-1-yl)ethan-1-one]
140 nM	140 nM	CO[C@@H]1[C@@H](n2cc(-c3cccc(F)c3)nn2)[C@@H](O)[C@@H](CO)O[C@@H]1Cc1cc(C2CCN(C(=O)OC(C)(C)C)CC2)no1 [Ex 1.123]
450 nM	43 nM	CO[C@@H]1[C@@H](n2cc(-c3cc(F)c(F)c(F)c3)nn2)[C@@H](O)[C@@H](CO)O[C@@H]1Cc1cc(C2CCN(C(=O)NC(C)C)CC2)on1 [Example 3.38, 4-(3-(((2R,3R,4S,5R,6R)-5-hydroxy-6-(hydroxymethyl)-3-methoxy-4-(4-(3,4,5-trifluorophenyl)-1H-1,2,3-triazol-1-yl)tetrahydro-2H-pyran-2-yl)methyl)isoxazol-5-yl)-N-isopropylpiperidine-1-carboxamide]
